# Experimental data as given in ChEMBL document CHEMBL1134573, “Utilization of a peptide lead for the discovery of a novel PTP1B-binding motif” (J Med Chem, 2001).
# Starred links: 1 amine or outer side, 2 acyl side, 3 side chain; linkers in the order of their positions; H or OH if unused. Non-standard residues stand in square brackets, D forms with d. Residues, ends and D or L forms follow the SMILES beside them. X1 = O=C(O)COc1ccc(C[C@H](N[*:1])C(=O)[*:2])cc1C(=O)O; F2Pmp = N[C@@H](Cc1ccc(C(F)(F)P(=O)(O)O)cc1)C(=O)O
# Biological target: T1, Tyrosine-protein phosphatase non-receptor type 1 (Homo sapiens, UniProt P18031)
# T1 sequence (P18031 whole entry): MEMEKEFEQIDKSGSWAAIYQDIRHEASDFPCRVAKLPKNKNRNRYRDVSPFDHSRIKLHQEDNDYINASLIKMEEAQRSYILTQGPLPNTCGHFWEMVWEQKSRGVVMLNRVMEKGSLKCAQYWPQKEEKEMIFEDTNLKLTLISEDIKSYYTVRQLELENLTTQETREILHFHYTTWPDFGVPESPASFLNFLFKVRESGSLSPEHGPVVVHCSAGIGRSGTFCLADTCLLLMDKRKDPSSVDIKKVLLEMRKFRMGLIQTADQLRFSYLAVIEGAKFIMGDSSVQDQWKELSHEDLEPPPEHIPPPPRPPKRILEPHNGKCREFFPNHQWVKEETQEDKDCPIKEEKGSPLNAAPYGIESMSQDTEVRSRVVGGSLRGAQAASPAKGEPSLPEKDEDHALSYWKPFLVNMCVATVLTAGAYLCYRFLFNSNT
# Test: Inhibitory activity against human Protein-tyrosinephosphatase 1B (PTP1B)
SMILES,IC50 [mM],Ki [mM]
O=S(=O)(O)c1ccc2c(S(=O)(=O)O)cc(S(=O)(=O)O)cc2c1,> 4,–
O=C(O)c1ccc2cc(OC(F)(F)C(=O)O)ccc2c1,9.4,–
O=C(O)c1ccc2c(C(=O)O)cccc2c1,–,0.031
NC(=O)[C@H](CCC(=O)O)NC(=O)c1ccc2c(C(=O)O)c(OCC(=O)O)ccc2c1,3.8,–
O=C(O)COc1ccc2cc(C(=O)O)ccc2c1C(=O)O,–,0.9
O=C(O)c1ccc2c(C(=O)O)c(O)ccc2c1,12,–
CC(=O)N[C@@H](CC(=O)O)C(=O)N[C@@H](C)C(=O)N[C@@H](CC(=O)O)C(=O)N[C@@H](CCC(=O)O)C(=O)N[C@@H](Cc1ccc(C(F)(F)P(=O)(O)O)cc1)C(=O)N[C@@H](CC(C)C)C(N)=O (Ac-DADE[F2Pmp]L-NH2),–,0.0002
CC(=O)N[C@@H](CC(=O)O)C(=O)N[C@@H](C)C(=O)N[C@@H](CC(=O)O)C(=O)N[C@@H](CCC(=O)O)C(=O)N[C@@H](Cc1ccc(OCC(=O)O)c(C(=O)O)c1)C(=O)N[C@@H](CC(C)C)C(N)=O (Ac-DADE[X1]L-NH2),–,0.0036

# Further lines, results first:
IC50 [mM],Ki [mM],SMILES
20,–,COc1ccc2cc(C(=O)O)ccc2c1C(=O)O
> 4,–,O=S(=O)(O)c1ccc2cc(S(=O)(=O)O)ccc2c1
29,–,CS(=O)(=O)Nc1cccc2cc(S(=O)(=O)O)ccc12
–,0.25,O=C(O)COc1cc2ccc(C(=O)O)cc2cc1C(=O)O
28,–,O=S(=O)([O-])c1cccc2c(S(=O)(=O)[O-])cccc12.[Na+].[Na+]
> 3.2,–,O=C(O)c1ccc2ccc(C(=O)O)cc2c1
2.8,–,COC(=O)c1ccc2c(C(=O)O)c(OC)ccc2c1
> 4,–,O=C(O)c1ccc2cc(C(=O)O)ccc2c1
–,0.012,NC(=O)[C@@H](CCC(=O)O)NC(=O)c1ccc2cc(C(F)(F)P(=O)(O)O)ccc2c1
–,0.022,O=C(O)c1ccc2cc(C(F)(F)P(=O)(O)O)ccc2c1
9.4,–,O=C(O)COc1ccc2cc(C(=O)O)ccc2c1
